System: R2(VC)
Test: cells
Set-up: species or system CHO sublines
Conditions: 96 h, read-out: >1000

| Compound | IC50 |
| --- | --- |
| Nc1nc2[nH]cc(CCCc3ccc(C(=O)N[C@@H](CCC(=O)O)C(=O)O)cc3)c2c(=O)[nH]1 [compound 7] | > 1 µM |
| Nc1nc2[nH]cc(CCCCc3ccc(C(=O)N[C@@H](CCC(=O)O)C(=O)O)cc3)c2c(=O)[nH]1 [compound 8] | > 1 µM |

From PMC3917155 (Journal of medicinal chemistry, 2013)
